# Measured values taken from US20100120700A1, “METHODS AND COMPOSITIONS FOR TREATING CERVICAL CANCER” (priority 2000, published 2010).
# Assays:
# SAST2 = details: E6 peptide titrated against constant GST-PDZ; SAST2 (1)
# Description: (§1) (1) A GST/PDZ fusion protein, as well as GST alone as a negative control, are bound to a surface (e.g., a 96-well plate) and the surface blocked and washed as described supra for the “G” assay.
# (§2) (2) 50 uL per well of a solution of biotinylated PL peptide (e.g. as shown in TABLE 2) is added to the surface in increasing concentrations in PBS/BSA (e.g. at 0.1 uM, 0.33 uM, 1 uM, 3.3 uM, 10 uM, 33 uM, and 100 uM). In one embodiment, the PL peptide is allowed to react with the bound GST/PDZ fusion protein (as well as the GST alone negative control) for 10 minutes at 4° C. followed by 20 minutes at 25° C. The plate is washed 3 times with ice cold PBS to remove unbound labeled peptide.
# (§3) (3) The binding of the PL peptide to the immobilized PDZ-domain polypeptide is detected as described supra for the “G” assay.
# (§4) (4) For each concentration of peptide, the net binding signal is determined by subtracting the binding of the peptide to GST alone from the binding of the peptide to the GST/PDZ fusion protein. The net binding signal is then plotted as a function of ligand concentration and the plot is fit (e.g. by using the Kaleidagraph software package curve fitting algorithm; Synergy Software) to the following equation, where “Signal[ligand]” is the net binding signal at PL peptide concentration “[ligand],” “Kd” is the apparent affinity of the binding event, and “Saturation Binding” is a constant determined by the curve fitting algorithm to optimize the fit to the experimental data: […]
# PSD95 (PDZ1-3) = PSD95 (PDZ1-3) (Homo sapiens, UniProt P78352); details: E6 peptide titrated against constant GST-PDZ; PSD95 (1-3)
# Description: as §1, §2, §3, §4
# VARTUL = details: E6 peptide titrated against constant GST-PDZ
# Description: as §1, §2, §3, §4
# PSD95 (PDZ2) = PSD95 (PDZ2) (Homo sapiens, UniProt P78352); details: E6 peptide titrated against constant GST-PDZ; PSD95 (2)
# Description: as §1, §2, §3, §4
# SIP1 (PDZ1) = SIP1 (PDZ1) (Homo sapiens, UniProt Q15599); details: E6 peptide titrated against constant GST-PDZ; SIP1 (1)
# Description: as §1, §2, §3, §4
# DLG3 (PDZ1-2) = DLG3 (PDZ1-2) (Homo sapiens, UniProt Q92796); details: E6 peptide titrated against constant GST-PDZ; DLG3 (1-2)
# Description: as §1, §2, §3, §4
# Magi3 (PDZ1) = Magi3 (PDZ1) (Homo sapiens, UniProt Q5TCQ9); details: E6 peptide titrated against constant GST-PDZ; Magi3 (1)
# Description: as §1, §2, §3, §4
# DLG2 (PDZ3) = DLG2 (PDZ3) (Homo sapiens, UniProt Q15700); details: E6 peptide titrated against constant GST-PDZ; DLG2 (3)
# Description: as §1, §2, §3, §4
# SAST1 KIAA = details: E6 peptide titrated against constant GST-PDZ
# Description: as §1, §2, §3, §4
# Magi1C (PDZ2) = Magi1C (PDZ2) (Homo sapiens, UniProt Q96QZ7); details: E6 peptide titrated against constant GST-PDZ; Table 10 prints Magi1C (1)
# Description: as §1, §2, §3, §4
# SIP1 (PDZ1), sequence (Q15599 with tags, fused parts or gaps): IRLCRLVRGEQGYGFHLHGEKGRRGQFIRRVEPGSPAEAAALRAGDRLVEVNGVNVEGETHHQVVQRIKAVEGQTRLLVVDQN
# DLG3 (PDZ1-2), sequence (Q92796 129-315 limits assumed): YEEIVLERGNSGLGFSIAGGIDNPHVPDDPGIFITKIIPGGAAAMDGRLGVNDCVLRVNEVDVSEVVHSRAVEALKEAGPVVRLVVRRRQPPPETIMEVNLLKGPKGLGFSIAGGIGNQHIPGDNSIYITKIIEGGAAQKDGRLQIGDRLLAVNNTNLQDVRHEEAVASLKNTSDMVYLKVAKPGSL
# Magi1C (PDZ2), sequence (Q96QZ7 463-566): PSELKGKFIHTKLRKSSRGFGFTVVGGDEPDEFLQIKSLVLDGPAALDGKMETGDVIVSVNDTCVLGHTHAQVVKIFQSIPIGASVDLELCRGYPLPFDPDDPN
# Magi3 (PDZ1), sequence (Q5TCQ9 401-502): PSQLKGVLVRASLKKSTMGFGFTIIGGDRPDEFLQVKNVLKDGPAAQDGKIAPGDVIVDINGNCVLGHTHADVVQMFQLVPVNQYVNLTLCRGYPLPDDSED
substance,measurement,setting,value
"20 mer peptide corresponding to the C-terminus of HPV16 E6 (PDZ ligand), biotinylated in binding assays; ends SSRTRRETQL (SEQ ID NO: 13) [HPV E6 #16]",EC50,SAST2,1200 nM
same,EC50,PSD95 (PDZ1-3),1000 nM
same,EC50,VARTUL,940 nM
same,EC50,PSD95 (PDZ2),6800 nM
same,EC50,SIP1 (PDZ1),7500 nM
same,EC50,DLG3 (PDZ1-2),3800 nM
same,EC50,Magi3 (PDZ1),310 nM
same,EC50,DLG2 (PDZ3),1600 nM
same,EC50,SAST1 KIAA,580 nM
same,EC50,Magi1C (PDZ2),56 nM
